Consider twelve compounds from ChEMBL document CHEMBL5370664, “Resveratrol Derivatives Inhibit Transthyretin Fibrillization: Structural Insights into the Interactions between Resveratrol Derivatives and Transthyretin” (J Med Chem, 2023).

Calls of active or inactive are those of the source. No cut-off for these calls is given here.

In test [1] the test system is Transthyretin (Homo sapiens), P02766 [V50M]. In words: Binding affinity to N-terminal hexa-histidine tagged TTR V30M mutant (unknown origin) expressed in Escherichia coli assessed as change in entropy at 60 uM by ITC assay. On the technique in general: In ITC the heat of successive injections is recorded.
The test system is the same in test [2]. In words: Inhibition of recombinant N-terminal hexa-histidine tagged TTR V30M mutant (unknown origin) expressed in Escherichia coli assessed as acid mediated amyloid-like fibril formation by measuring fluorescence intensity at 1 uM incubated for 4 days at 310K in presence of sodium acetate by thioflavin T based fluorescence spectrophotometric analysis. The conditions noted are these: time 4.0 day.

In test [3] the target is T1, Transthyretin (Homo sapiens, UniProt P02766, V50M). In words: Binding affinity to recombinant N-terminal hexa-histidine tagged TTR V30M mutant (unknown origin) expressed in Escherichia coli assessed as quenching of intrinsic tryptophan fluorescence by measuring apparent dissociation constant incubated for 60 mins by fluorescence based analysis. The following applies: read-out: Kd(app).

Test [4] relates to Transthyretin (Homo sapiens), P02766 [V50M]. In words: Binding affinity to N-terminal hexa-histidine tagged TTR V30M mutant (unknown origin) expressed in Escherichia coli assessed as gibbs free energy change at 60 uM by ITC assay.
For test [5], the target named is T1, Transthyretin. In words: Binding affinity to N-terminal hexa-histidine tagged TTR V30M mutant (unknown origin) expressed in Escherichia coli assessed as dissociation constant at 60 uM by ITC assay.
Test [6] has as its target T1, Transthyretin. In words: Inhibition of recombinant N-terminal hexa-histidine tagged TTR V30M mutant (unknown origin) expressed in Escherichia coli assessed as acid mediated amyloid-like fibril formation by measuring turbidity incubated for 1 week at 310K in presence of sodium acetate by absorbance based assay.
Test [7] concerns Transthyretin (Homo sapiens), P02766 [V50M]. In words: Binding affinity to N-terminal hexa-histidine tagged TTR V30M mutant (unknown origin) expressed in Escherichia coli assessed as change in enthalpy at 60 uM by ITC assay.

For orientation: Ki means the equilibrium dissociation constant of an inhibitor or competing ligand from its target. For the compound `COc1cc(/C=C/c2cc(O)cc(O)c2)ccc1O`, the -TdeltaS in test [1] came to 4.7 kcal/mol. For the same compound, the inhibition entry in test [2] is “Active”. Further, the Kd in test [3] was 730 nM; in test [5], 1200 nM. For the same compound, in test [4], the deltaG is -8.1 kcal/mol. Also, in test [6], the Ki was 3200 nM. Moreover, the deltaH in test [7] is -13 kcal/mol.

For the compound `COc1cc(O)cc(/C=C/c2ccc(O)cc2)c1`, the -TdeltaS in test [1] came to 6.2 kcal/mol. Moreover, the inhibition entry in test [2] is “Active”. Also, the results for the Kd in test [3] and in test [5] were 1200 nM and 2400 nM, respectively. The deltaG in test [4] is -7.7 kcal/mol. In addition, in test [6], the Ki was 3400 nM. In test [7], the deltaH was -14 kcal/mol.

Consider `Oc1cc(O)cc(/C=C/c2c(O)cccc2O)c1`, for which the -TdeltaS in test [1] amounted to 1.7 kcal/mol. The inhibition entry in test [2] was “inactive”. Also, the Kd in test [3] worked out at 14000 nM; in test [5], 11000 nM. Further, the deltaG in test [4] was -6.8 kcal/mol. Further, the inhibition constant Ki in test [6] was 54000 nM. In addition, the deltaH in test [7] was -8.5 kcal/mol.

In the case of `O=C(O)c1cc(-c2ccc(F)cc2F)ccc1O`, in test [1], the -TdeltaS turned out to be 5.2 kcal/mol. Also, the inhibition result in test [2] was “Active”. The deltaH in test [7] is -13 kcal/mol.

Regarding `O=C(O)c1ccc2nc(-c3cc(Cl)cc(Cl)c3)oc2c1`, in test [1], the -TdeltaS is -4 kcal/mol. Moreover, the inhibition entry in test [2] is “Active”. The deltaH in test [7] is -5 kcal/mol.

Regarding `COc1cc(/C=C/c2ccc(OC)c(OC)c2)cc(OC)c1` [(E)-3,4,3',5'-TETRAMETHOXYSTILBENE], the inhibition result in test [2] is “inactive”. The Kd in test [3] was 6900 nM. Moreover, the Ki in test [6] turned out to be 49000 nM.

Regarding `Oc1cc(O)cc(/C=C/c2ccc(O)cc2O)c1` [OXYRESVERATROL], in test [1], the -TdeltaS turned out to be 7.5 kcal/mol. For the same compound, in test [2], the inhibition result is “Active”. In addition, the Kd in test [3] stood at 2400 nM; in test [5], 1400 nM. In addition, the deltaG in test [4] was -8.1 kcal/mol. The inhibition constant Ki in test [6] turned out to be 4500 nM. In addition, in test [7], the deltaH is -16 kcal/mol.

`Oc1cc(O)cc(/C=C/c2ccc(O)c(O)c2)c1` [PICEATANNOL]: the -TdeltaS in test [1] amounted to 6.4 kcal/mol. Moreover, the inhibition entry in test [2] was “Active”. Also, the figures for the Kd in test [3] and in test [5] were 2100 nM and 1500 nM, respectively. Moreover, the deltaG in test [4] is -8 kcal/mol. Further, the Ki in test [6] is 5400 nM. The deltaH in test [7] is -14 kcal/mol.

On to `COc1cc(/C=C/c2ccc(O)cc2)cc(OC)c1` [PTEROSTILBENE], for which, in test [1], the -TdeltaS was found to be 6.8 kcal/mol. For the same compound, in test [2], the inhibition result was “Active”. Also, the results for the Kd in test [3] and in test [5] were 1900 nM and 4600 nM, respectively. Also, the deltaG in test [4] is -7.3 kcal/mol. Further, in test [6], the inhibition constant Ki came out at 3500 nM. Besides, the deltaH in test [7] is -14 kcal/mol.

Turning to `Oc1ccc(/C=C/c2cc(O)cc(O)c2)cc1` [RESVERATROL], the -TdeltaS in test [1] worked out at 6.6 kcal/mol. Moreover, in test [2], the inhibition entry is “Active”. In addition, the Kd in test [3] was 1400 nM; in test [5], 1500 nM. Also, the deltaG in test [4] was -8 kcal/mol. Further, the Ki in test [6] turned out to be 2700 nM. Besides, the deltaH in test [7] was -15 kcal/mol.

Take `CC(=O)Oc1ccc(/C=C/c2cc(OC(C)=O)cc(OC(C)=O)c2)cc1` [TRIACETYLRESVERATROL]: the inhibition entry in test [2] is “Active”. Besides, the inhibition constant (Ki) in test [6] is 2200 nM.

As for `COc1ccc(/C=C/c2cc(OC)cc(OC)c2)cc1` [TRISMETHOXYRESVERATROL], the inhibition entry in test [2] was “inactive”. For the same compound, in test [3], the Kd was 4100 nM.
